# Results reported in US20180064702A1 (Teva Pharmaceutical Industries, Ltd., priority 2013, published 2018).
# Key:
# [1] = test system: genes related to antigen presentation and corresponding inflammatory pathways; conditions: mainly via the NFkB pathway; cited from earlier work
# [2] = in vivo; cited from earlier work
# [3] = test system: patients having Relapsing-Remitting Multiple Sclerosis (RRMS); conditions: cited from earlier work
# [4] = test system: patients afflicted with a progressive form of multiple sclerosis (PPMS, SPMS, PRMS); experiment: Phase III clinical trial of oral laquinimod in progressive forms of multiple sclerosis (Example 1); type: in vivo, human; conditions: daily oral 0.6 mg, 0.9 mg, 1.2 mg and 1.8 mg
# Text: 3-5 Years (2-4 years recruitment duration). Progressive Forms of Multiple Sclerosis, including Primary Progressive Multiple sclerosis (PPMS) and Secondary Progressive Multiple Sclerosis (SPMS). […] Matching placebo for laquinimod arm: matching placebo for laquinimod administered once daily. Approximately 140-240 sites and approximately 1300-2300 subjects. Inclusion Criteria • 1. Subjects must be 25-65 years old. • 2. Subjects must have a confirmed and documented diagnosis of Primary Progressive (according to McDonald), Progressive-Relapsing or Secondary Progressive (clinical definition, without relapses in the previous year) Multiple Sclerosis disease course. • 3. Subjects must be ambulatory with converted Kurtzke EDSS score of 3.0-6.5. • 4. Subjects must have a Pyramidal Functional Systems (FS) score of ≧2. • 5. Subjects must have a threshold Timed 25-Foot Walk ([…]) score. Exclusion Criteria • 1. Subjects with RRMS. • 2. Subjects with clinically significant or unstable medical or surgical condition that would preclude safe and complete study participation, as determined by medical history, physical examination, ECG, laboratory tests or chest X-ray. • 3. […] Confirmed disability progression at 3 and 6 months. This study assesses the efficacy of various daily doses of laquinimod as compared to placebo in multiple sclerosis subjects.
# [5] = test system: patients afflicted with PPMS; experiment: Phase II clinical trial of laquinimod in Primary Progressive Multiple Sclerosis subjects (Example 2); type: in vivo, human; conditions: daily oral 0.6 mg, 1.0 mg and 1.5 mg
# Method: Study Duration • Screening phase: Up to 1 month • Treatment Phase: At least 15 months
# Subjects with Primary Progressive Multiple Sclerosis (approximately 500 subjects in approximately 120 centers, with about 125 subjects per study arm).
# Investigational Product Route and Dosage Form • 1. […] Placebo arm: Three capsules containing placebo (0.5/0.6 mg matching) to be administered orally once daily.
# Eligible subjects are randomized in a 1:1:1:1 ratio into one of the following treatment arms: • 1. […] Matching placebo
# Subjects that stopped treatment with the study drug before the completion of Month 12 visit are considered Early Treatment Discontinuation (ETD) subjects. ETD subjects continue follow-up according to scheduled visits (until Month 12).
# Subjects have the following study visits: Screening visit (−1 Month), Baseline visit (Month 0), and Months 1, 2, 3, 6, 9, 12, and every three months until study termination.
# The following assessments are performed at the specified time points: • 1. Vital signs are measured at each study visit. • 2. A physical examination is performed at months −1, 0, 1, 3, 6 and every 6 months thereafter, ETD (if applicable), and until study completion. • 3. The following safety clinical laboratory tests are performed: • a. Complete blood count (CBC) with differential at all scheduled visits. • b. Serum chemistry (including electrolytes, liver enzymes, urea, creatinine, glucose, total protein, albumin, direct and total bilirubin, Creatinephosphokinase (CPK), serum conventional C-reactive protein (CRP), fibrinogen and pancreatic amylase)—at all scheduled visits. Calculated Glomerular Filtration Rate (GFR) at screening and prior to each MRI scan. • c. Lipid profile (total cholesterol, HDL, LDL, triglycerides)—at baseline (month 0) and every 12 months until completion/ETD. • d. Serum TSH, T3 and Free T4 at baseline (month 0), month 6 and every 12 months until completion/ETD. • e. Urinalysis at the screening visit. • f. Serum human choriogonadotropin beta (β-hCG) in women of child-bearing potential is performed at each scheduled study visit. • g. Urine β-hCG test is performed in women of child-bearing potential at baseline (month 0) and at each scheduled study visit thereafter. • h. Starting after visit Month 3 a β-hCG test is performed in women of child-bearing potential every 28 (±2) days. In case of suspected pregnancy the study drug is discontinued. • 4. Additional blood for analysis of serology for Hepatitis B and C viruses at baseline visit • 5. […] ECG is performed at months −1 (screening), 0 (baseline, three recordings 10 min apart, before first dose), 1, 2, 3, 6, 12 and every 12 months until completion/ETD. • 8. Chest X-ray is performed at month −1, (if not performed within 6 months prior to the screening visit). • 9. Adverse Events (AEs) are monitored throughout the study. • 10. Concomitant Medications are monitored throughout the study. • 11. All subjects—conventional MRI scans with gadolinium at Months 0 (14 to 7 days before Baseline), and 12. In case of ETD, or completion, an additional MRI is performed, provided no study MRI was done within the previous 3 months. • 12. In case of steroid treatment, study MRI is performed before such treatment or delayed to allow a minimum of 14 days but not more than 28 days from the completion of the steroid course. • 13. All subjects—MRI including 3D T1-w acquisitions of the brain and cervical cord, to measure whole brain volume, cord atrophy, thalamic atrophy, cortical atrophy and white matter (WM) atrophy at Months 0 (Baseline), 12 or ETD (if applicable). • 14. Neurological evaluations, including Expanded Disability Status Scale (EDSS), Timed 25-Foot Walk (T25FW)/9-Hole Peg test (9HPG), Ambulation Index (AI), Functional systems (FS), are performed at months −1, 0, and every 3 months thereafter, ETD visit (if applicable) and until completion visit. • 15. […]
smiles,measurement,setting,value
CCN(C(=O)c1c(O)c2c(Cl)cccc2n(C)c1=O)c1ccccc1 [laquinimod],suppression of genes related to antigen presentation,[1],induced suppression of genes related to antigen presentation and corresponding inflammatory pathways
same,oral bioavailability,[2],high
same,EDSS progression of disability,[3]; RRMS patients,consistently reduced EDSS progression of disability
same,brain atrophy,[3]; RRMS patients,reduced brain atrophy
same,non-conventional MRI metrics,[3]; RRMS patients,increased non-conventional MRI metrics suggestive of preservation of tissue architecture
same,safety and tolerability profile,"[3]; two phase III trials, relapsing-remitting multiple sclerosis patients",favorable safety and tolerability profile
same,accumulation of physical disability,"[4]; PPMS, vs placebo control group",reduces the accumulation of physical disability
same,accumulation of physical disability,"[4]; PPMS, vs the patient at baseline",reduces the accumulation of physical disability
same,accumulation of physical disability,"[4]; PRMS, vs placebo control group",reduces the accumulation of physical disability
same,accumulation of physical disability,"[4]; PRMS, vs the patient at baseline",reduces the accumulation of physical disability
same,accumulation of physical disability,"[4]; SPMS, vs placebo control group",reduces the accumulation of physical disability
same,accumulation of physical disability,"[4]; SPMS, vs the patient at baseline",reduces the accumulation of physical disability
same,accumulation of physical disability,"[4]; progressive form of multiple sclerosis, vs placebo control group",reduces the accumulation of physical disability
same,accumulation of physical disability,"[4]; progressive form of multiple sclerosis, vs the patient at baseline",reduces the accumulation of physical disability
same,accumulation of physical disability,[5]; vs placebo control group,reduces the accumulation of physical disability
same,brain atrophy (percentage change in brain volume from Baseline to month 12),[5]; vs placebo control group,reduces brain atrophy
same,cognitive function,[5]; vs placebo control group,improves cognitive function
same,cumulative number of new T2 lesions,[5]; vs placebo control group,reduces the cumulative number of new T2 lesions
same,accumulation of physical disability,[5]; vs the patient at baseline,reduces the accumulation of physical disability
same,brain atrophy (percentage change in brain volume from Baseline to month 12),[5]; vs the patient at baseline,reduces brain atrophy
same,cognitive function,[5]; vs the patient at baseline,improves cognitive function
same,cumulative number of new T2 lesions,[5]; vs the patient at baseline,reduces the cumulative number of new T2 lesions
